This is an account of results in patent US11970713B2, “Method for long-term ex vivo maintenance or expansion of human erythroblast, human megakaryocyte-erythroid progenitor, or human common myeloid progenitor cell and application thereof” (OCGENE THERAPEUTICS CORPORATION, priority 2020, dated 2024).

The experiment concerns human umbilical cord blood mononuclear cells. Kind of experiment: Cell expansion in E6 medium with different tankyrase inhibitors, removal of SB590885 or CHIR99021, or different XAV939 concentrations (Example 6). It counts as cell-based. Particulars: XAV939 between 0.2 μM and 2 μM in E6 + 3i. The method, then:
2×10^6 of human umbilical cord blood mononuclear cells were cultured in E6 medium supplemented with 3i composition (the same as that in EXAMPLE 1) as a control group; and 2×10^6 of human umbilical cord blood mononuclear cells were cultured in E6 medium supplemented with 3i+X composition (the same as that in EXAMPLE 1) as experimental groups, wherein X presented the tankyrase inhibitor, and different tankyrase inhibitors were selected from JW55, RK-287107, WIKI4, XAV939 or TC-E5001 in different experimental groups.
Additionally, the inventors investigated effect of removal of SB590885, removal of CHIR99021, or experience of different concentrations of XAV939 on cell expansion. The cell counting results were shown in Tables 2, 3, and 4, respectively.

Molecules are shown by their SMILES. “Also recorded” adds a separate entry of the source.

On to `Oc1nc(-c2ccc(C(F)(F)F)cc2)nc2c1CSCC2` [XAV939], for which the “Effect of XAV939 concentration on expanded cell numbers” value is reported as “about the same; also recorded: can promote cell expansion”.
